Test: Human HepG2 cell viability assay in 384 well format
Format: toxicity, cell-based
Set-up: dose 125 nL, time 70.5 hour; concentration not given beside the values
Details: HepG2 cells, read-out: Inhibition

Row | Structure (SMILES) | cytotoxicity at 70.5 h [%]
1 | CCc1nc2c(c(N3CCOCC3)n1)CCN(C(=O)c1ccon1)CC2 | 6.74
2 | Cc1nn(C)c(C)c1C(C)NC(=O)c1cc(CN2CCC(O)CC2)on1 (stereo not given) | -5.78
3 | CC(C)(C)c1ncc(C(=O)N2CCN(C(=O)c3ccc[nH]3)CC2)c(O)n1 | -2.76
4 | O=C(c1cccc(C2CCNC2)c1)N1CCC(N2CCC(O)CC2)CC1 (stereo not given) | 44.2
5 | CC(C)[C@@H]1CN(C(=O)NCc2ccco2)C[C@H]1NS(=O)(=O)N(C)C | 17.9
6 | COc1ccccc1OCCn1c(C)c(C)oc1=O | 23.3
7 | CNc1nc(C(=O)N2C[C@H]3CC[C@@H]2CN(S(C)(=O)=O)C3)cs1 | 12
8 | Cc1cc(C)nc(NC2CC(=O)N(C)C2)n1 (stereo not given) | -8.75
9 | Cc1ncsc1C(=O)N1CC[C@@]2(O)CCN(C(=O)N3CCCC3)C[C@H]2C1 | 12.8
10 | COc1cc(F)ccc1C(C(=O)O)N(C)Cc1ccon1 (stereo not given) | -7.03
11 | CCCc1cnc(C)nc1NC(C)Cc1cnccn1 (stereo not given) | -5.97
12 | Cc1ccc(CN2CCCC(c3nnc(CN4CCCCC4)n3C)C2)s1 (stereo not given) | 4.84
13 | Cc1cc2c(=O)n(CCSc3cnn[nH]3)cnc2s1 | -12.3
14 | CCC(C(=O)N1CCS(=O)(=O)CC1)n1cccn1 (stereo not given) | -4.81
15 | Cc1cccc2c1nc(CCO)n2-c1ccc(C(=O)N2CCCC2)o1 | 12.9
16 | CCNC(=O)[C@@H]1C[C@H](N)CN1Cc1ccc(Sc2ccc(C)cc2)o1 | -13.8
17 | CCCc1nc(C(=O)NCCN2CCC(c3ccccc3C)C2)cs1 (stereo not given) | 0.739
18 | CCC[C@H]1CN(C(=O)c2ccc3[nH]c(CO)nc3c2)C[C@@H]1N | -27.1
19 | Cn1cc(C(=O)N2CCCC(c3ncc[nH]3)C2)cn1 (stereo not given) | -7.17
20 | CSCC(=O)NC1CC(=O)N(CCc2ccccc2)C1 (stereo not given) | -10.9
21 | CCCN1CCN(C(=O)c2ccc3nc(C)oc3c2)[C@H]2CS(=O)(=O)C[C@H]21 | -7.59
22 | COC(=O)c1ccc(C(=O)N2CCCC(Nc3ccc(F)cc3)C2)cc1 (stereo not given) | -1.16
23 | COc1ccc2c(c1)C(C(=O)NCCN1CCNC1=O)CC(=O)N2 (stereo not given) | 16.8
24 | CC(C)N1CC(C(=O)N2CCN(CCn3cccc3)CC2)CC1=O (stereo not given) | -3.03
25 | Cn1nccc1C(=O)N1CCCC1c1ccc(C(=O)N2CCOCC2)s1 (stereo not given) | 0.297
26 | OCC1(O)CCCN(Cc2nnc(-c3ccccc3)o2)CC1 (stereo not given) | -7.78
27 | CCNc1ncc(C(=O)NC2CCc3ccccc3C2)cn1 (stereo not given) | 54.4

Row | Structure (SMILES) | cytotoxicity at 70.5 h [%]
28 | CC(=O)NCCNC(=O)C(c1ccccc1C)N(C)C (stereo not given) | 12.4
29 | CCCSCC(=O)N1C[C@@H]2CC[C@H](C1)N(Cc1ccccn1)C2=O | -5.83
30 | Fc1ccccc1CC1CCN(Cc2ccccn2)CC1 | -5.22
31 | CCC[C@@H]1CN(C(=O)c2c(F)ccc(OC)c2F)C[C@H]1C(=O)O | -0.545
32 | CN1CCN([C@@H]2CCN(CC3=Cc4cc(Cl)ccc4OC3)C[C@H]2O)CC1 | -0.445
33 | Cc1nc(CN(C)C(=O)Nc2cccc(C)c2C)no1 | -9.32
34 | CCn1c(Cn2cncn2)nnc1C1CCN(C2CCOCC2)CC1 | 34.9
35 | CC(=O)NC(C)C1=CCCN(Cc2ccc(C(=O)O)cc2)C1 (stereo not given) | 2.27
36 | O=C1O[C@@H]2CN(Cc3ccncc3)C[C@@H]2N1CCCN1CCOCC1 | -3.93
37 | Cc1ccc2cc(CN(C)Cc3ccncn3)c(=O)[nH]c2c1 | -13.2
38 | CCN(Cc1noc(C)n1)C(=O)C(c1cccc(C)c1)N(C)C (stereo not given) | 10.7
39 | CCN(CCN1CCCCCC1)C(=O)COc1cccnc1 | 16
40 | COc1ccccc1[C@@H]1CN(Cc2ccncc2)C[C@H]1C(=O)O | 9.71
41 | c1cn(-c2ccc(N3CCC(NC4CC4)CC3)cc2)cn1 | -14.2
42 | CC(C)CC(O)C1CCN(C(=O)c2coc(CN3CCOCC3)c2)CC1 (stereo not given) | -7.32
43 | O=C(Cn1ccc(=O)cc1)NCc1ccc2sccc2c1 | -7.85
44 | O=C1OCC(CO)N1Cc1cccc(Cl)c1F (stereo not given) | 26.5
45 | O=C(c1ccccc1)C1CCN(C(=O)CC2COCCN2)CC1 (stereo not given) | 1.52
46 | CN(C)S(=O)(=O)NCc1cccnc1Oc1ccc(F)c(F)c1 | -4.24
47 | CC(C)Nc1cc(N2CCC(n3cc(CCO)nn3)CC2)ncn1 | 16.9
48 | CN1[C@H]2CC[C@@H]1CN(c1nc(-c3ccncc3)nc3c1cnn3C)CC2 | -2.38
49 | c1ccc(-c2nnc(N3CCCC4(CCOC4)C3)s2)cc1 (stereo not given) | 1.41
50 | O=C(c1cncc(NCC2COc3ccccc3C2)n1)N1CCOCC1 (stereo not given) | -7.07
51 | COc1ccc(OCc2cc(C(=O)N3CCCCO3)n[nH]2)c(Cl)c1 | -19.5
52 | CCc1ncc(C(=O)N2CC[C@@H]3CC[C@H](C2)N3C)cn1 | -14
53 | O=C(CN1CCNC1=O)N1CCc2nnc(-c3ccccc3)n2CC1 | -1.95
54 | CCn1nc(C)c(NC(=O)CN(C)C(C)c2nccs2)c1C (stereo not given) | -6.95

Row | Structure (SMILES) | cytotoxicity at 70.5 h [%]
55 | Cc1cccnc1CNC(=O)CC1C(=O)NCCN1CC(C)(C)C (stereo not given) | -10.2
56 | CCc1cc(CN(C)C(=O)c2cnn[nH]2)on1 | -9.04
57 | Cc1ccccc1C(C(=O)NCCS(C)(=O)=O)N(C)C (stereo not given) | -14.5
58 | O=C1CCCCCN1Cc1nc(C2(c3ccc(F)cc3)CCOC2)no1 (stereo not given) | 18.4
59 | COCCNc1cc(-c2ccccc2S(N)(=O)=O)c2cc[nH]c2n1 | -7.36
60 | CC(C)n1cnnc1CN(C)C(=O)c1ccccc1-n1cncn1 | 0.803
61 | O=C1N(CC2CC2)CCCC1(O)CN1CCc2[nH]ncc2C1 (stereo not given) | -4.29
62 | c1cnn(CCC2CCN(Cc3ccc4[nH]ccc4c3)CC2)c1 | 0.43
63 | Cc1nc(O)cc(CN2CCC=C(CN(C)C(=O)c3ccco3)C2)n1 | -14.2
64 | CCCS(=O)(=O)c1ncc(CN2CCC(C)CC2)n1CC1CCCO1 (stereo not given) | -2.16
65 | CCCn1ncc(C(=O)NCc2n[nH]c3c2CCCCC3)c1C | -13.2
66 | CCC1c2cccn2CCN1C(=O)c1cc(OC)nc(OC)n1 (stereo not given) | 44.1
67 | CNC(=O)C(C)NC(=O)c1cc(COc2ccc(OC)cc2Cl)[nH]n1 (stereo not given) | -2.95
68 | CCN1CCN(C(=O)CCC2CCN(C(C)CSC)CC2)CC1 (stereo not given) | 3.5
69 | CNc1cc(-c2ccccc2CN)c2cc[nH]c2n1 | 3.36
70 | CN(C)C(=O)c1cccnc1N1CCOC(c2ccc(Cl)cc2)C1 (stereo not given) | -12.8
71 | CN(C)C(=O)NCc1cc2n(n1)CCCN(CC1CCCNC1)C2 (stereo not given) | 29.9
72 | Cc1cc(NCCc2c(C)n[nH]c2C)nc(-c2cccnc2)n1 | 20.8
73 | Cc1nn(CC(=O)NCc2cc3n(n2)CCCN(CC(C)C)C3)cc1Cl | 9.44
74 | O=C(CCn1cnnn1)N1CCCC(CO)(CCCc2ccccc2)C1 (stereo not given) | -1.63
75 | O=C(NCc1nncn1C1CCCCC1)C1COc2ccccc2O1 (stereo not given) | -7.82
76 | Nc1nnc(CCNC(=O)c2cccc(C3CCCNC3)c2)s1 (stereo not given) | -10.1
77 | Cc1cnccc1NCCNC(=O)[C@H]1CNC[C@H](C(=O)N2CCCC2)C1 | -4.18
78 | COC(=O)c1cc(OCC2CCC2)cc(C(=O)N[C@H](C)C(N)=O)c1 | -10.2
79 | CC(=O)N1CCc2[nH]cnc2C1C1=CCCN(CCn2cccc2)C1 (stereo not given) | -4.34
80 | Cc1cc(C(=O)N[C@H]2Cc3ccccc3[C@@H]2N)c(=O)[nH]c1C | 1.3

From ChEMBL document CHEMBL3507680, “University of Dundee, Gates Library screen for HepG2 cell viability”
